According to paper PMC3726004 (Bioorganic & medicinal chemistry, 2009):

Tests used:
[1] = target: T1, α4β2* nAChRs (Rattus norvegicus, UniProt P09483+P12390); test: [3H]nicotine; assay type: binding
[2] = target: T1, α4β2* nAChRs; test: nicotine-evoked 86Rb+ efflux from rat thalamic synaptosomes; assay type: biochemical
[3] = target: serotonin transporter (SERT) (Rattus norvegicus, UniProt P31652); test: [3H]5-HT uptake into rat hippocampal synaptosomes; assay type: biochemical
[4] = target: VMAT2 (Rattus norvegicus, UniProt Q01827); test: [3H]MTBZ or [3H]DTBZ binding to rat synaptic vesicle membranes
Sequence of VMAT2 (Q01827 whole entry): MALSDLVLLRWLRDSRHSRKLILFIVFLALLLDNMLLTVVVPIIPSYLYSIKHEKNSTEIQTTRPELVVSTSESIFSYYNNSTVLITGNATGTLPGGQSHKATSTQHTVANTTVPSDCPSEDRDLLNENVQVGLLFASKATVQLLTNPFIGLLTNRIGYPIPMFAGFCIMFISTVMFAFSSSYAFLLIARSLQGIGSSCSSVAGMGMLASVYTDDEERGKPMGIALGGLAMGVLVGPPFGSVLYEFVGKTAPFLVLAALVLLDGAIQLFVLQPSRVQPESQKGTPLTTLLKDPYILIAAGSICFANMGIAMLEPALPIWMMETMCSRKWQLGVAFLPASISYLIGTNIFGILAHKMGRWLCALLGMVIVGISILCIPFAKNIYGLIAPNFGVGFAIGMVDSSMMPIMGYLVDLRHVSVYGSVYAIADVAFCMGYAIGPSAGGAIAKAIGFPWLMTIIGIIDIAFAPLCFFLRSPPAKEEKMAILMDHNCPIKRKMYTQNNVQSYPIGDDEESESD

T1 sequence (P09483 31-630): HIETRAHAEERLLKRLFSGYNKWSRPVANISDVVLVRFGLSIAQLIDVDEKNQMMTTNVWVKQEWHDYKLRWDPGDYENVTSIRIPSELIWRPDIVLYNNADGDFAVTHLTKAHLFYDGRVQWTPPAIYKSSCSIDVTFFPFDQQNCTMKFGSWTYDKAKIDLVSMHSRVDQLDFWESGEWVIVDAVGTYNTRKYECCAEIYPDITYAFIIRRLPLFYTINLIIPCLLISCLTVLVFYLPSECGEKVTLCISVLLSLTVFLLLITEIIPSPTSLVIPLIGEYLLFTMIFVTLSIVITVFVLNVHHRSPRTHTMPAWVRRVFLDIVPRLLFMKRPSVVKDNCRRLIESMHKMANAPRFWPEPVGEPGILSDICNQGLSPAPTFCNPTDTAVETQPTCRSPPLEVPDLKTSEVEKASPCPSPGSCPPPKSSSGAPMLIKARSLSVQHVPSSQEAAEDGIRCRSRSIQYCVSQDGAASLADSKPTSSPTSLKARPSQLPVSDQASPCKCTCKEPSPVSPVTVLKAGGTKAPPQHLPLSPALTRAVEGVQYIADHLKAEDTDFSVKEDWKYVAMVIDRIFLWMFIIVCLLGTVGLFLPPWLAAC
T1 sequence (P12390 25-500): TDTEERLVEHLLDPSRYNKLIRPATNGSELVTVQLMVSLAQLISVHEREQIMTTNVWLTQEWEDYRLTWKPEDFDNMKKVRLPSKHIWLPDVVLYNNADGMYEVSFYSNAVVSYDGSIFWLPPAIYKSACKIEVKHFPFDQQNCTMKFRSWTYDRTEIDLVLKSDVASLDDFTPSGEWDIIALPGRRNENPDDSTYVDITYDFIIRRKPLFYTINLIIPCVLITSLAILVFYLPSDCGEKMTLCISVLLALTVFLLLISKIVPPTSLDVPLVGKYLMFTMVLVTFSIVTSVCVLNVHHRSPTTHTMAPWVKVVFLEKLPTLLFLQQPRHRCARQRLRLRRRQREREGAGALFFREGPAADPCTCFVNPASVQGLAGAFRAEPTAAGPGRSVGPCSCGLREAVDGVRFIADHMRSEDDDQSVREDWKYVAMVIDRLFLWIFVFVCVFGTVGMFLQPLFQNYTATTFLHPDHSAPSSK
Sequence of serotonin transporter (SERT) (P31652 whole entry): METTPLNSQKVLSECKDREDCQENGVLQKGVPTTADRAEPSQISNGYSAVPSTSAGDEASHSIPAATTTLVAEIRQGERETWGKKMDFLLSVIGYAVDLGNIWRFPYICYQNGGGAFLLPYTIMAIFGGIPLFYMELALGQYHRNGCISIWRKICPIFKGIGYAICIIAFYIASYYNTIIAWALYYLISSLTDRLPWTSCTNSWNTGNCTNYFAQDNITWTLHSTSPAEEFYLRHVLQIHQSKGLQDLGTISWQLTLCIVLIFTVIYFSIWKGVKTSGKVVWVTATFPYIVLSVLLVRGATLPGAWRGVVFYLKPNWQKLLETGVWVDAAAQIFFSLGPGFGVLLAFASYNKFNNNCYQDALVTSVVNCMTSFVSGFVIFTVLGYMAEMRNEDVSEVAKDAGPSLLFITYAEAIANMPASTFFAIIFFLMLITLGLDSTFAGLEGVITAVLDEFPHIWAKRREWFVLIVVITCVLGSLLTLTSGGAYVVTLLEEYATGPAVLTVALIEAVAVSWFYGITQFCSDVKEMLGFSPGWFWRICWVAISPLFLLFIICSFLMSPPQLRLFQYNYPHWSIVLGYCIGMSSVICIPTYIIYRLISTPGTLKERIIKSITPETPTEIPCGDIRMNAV

Row | Structure (SMILES) | fold less potent than lobeline in inhibiting [3H]nicotine binding (α4β2*) [1] | potency compared with lobeline at VMAT2 [4] | also measured
1 | CN1C(CC(=O)c2ccccc2)CCC[C@H]1CC(OC(=O)c1ccccc1)c1ccccc1.Cl (stereo in doubt) [Compound 2, (2S, 6S, 2R)-2-[6-(2-Benzoyloxy-2-phenylethyl)-1-methylpiperidin-2-yl]-1-phenylethanone hydrochloride] | 215–4800 fold | – | fold less potent than analog 10 in the [3H]nicotine binding assay [1]: 360 fold; extent of inhibition of nicotine-evoked 86Rb+ efflux [2]: completely inhibited
2 | CC(=O)OC(C[C@@H]1CCCC(CC(=O)c2ccccc2)N1C)c1ccccc1.Cl (stereo in doubt) [Compound 5, (2S, 6S, 2R)-2-[6-(2-Acetyloxy-2-phenylethyl)-1-methylpiperidin-2-yl]-1-phenylethanone hydrochloride] | 15 to 125 fold | equipotent | potency compared with lobeline at SERT [3]: equipotent
3 | CCC(=O)OC(C[C@@H]1CCCC(CC(=O)c2ccccc2)N1C)c1ccccc1.Cl (stereo in doubt) [Compound 6, (2S, 6S, 2R)-2-[6-(2-Propionyloxy-2-phenylethyl)-1-methylpiperidin-2-yl]-1-phenylethanone hydrochloride] | 15 to 125 fold | – | –
4 | CCCC(=O)OC(C[C@@H]1CCCC(CC(=O)c2ccccc2)N1C)c1ccccc1.Cl (stereo in doubt) [Compound 7, (2S, 6S, 2R)-2-[6-(2-Butyryloxy-2-phenylethyl)-1-methylpiperidin-2-yl]-1-phenylethanone hydrochloride] | 15 to 125 fold | – | –
5 | CC(C)C(=O)OC(C[C@@H]1CCCC(CC(=O)c2ccccc2)N1C)c1ccccc1.Cl (stereo in doubt) [Compound 8, (2S, 6S, 2R)-2-[6-(2-Isobutyryloxy-2-phenylethyl)-1-methylpiperidin-2-yl]-1-phenylethanone hydrochloride] | 15 to 125 fold | – | –
6 | CN1C(CC(=O)c2ccccc2)CCC[C@H]1CC(OS(=O)(=O)c1ccccc1)c1ccccc1.Cl (stereo in doubt) [Compound 10, (2S, 6S, 2R)-2-[6-(2-Benzenesulfonyloxy-2-phenylethyl)-1-methylpiperidin-2-yl]-1-phenylethanone hydrochloride] | – | equipotent | potency compared with lobeline at SERT [3]: equipotent; extent of inhibition of nicotine-evoked 86Rb+ efflux [2]: completely inhibited
7 | Cc1ccc(S(=O)(=O)OC(C[C@@H]2CCCC(CC(=O)c3ccccc3)N2C)c2ccccc2)cc1.Cl (stereo in doubt) [Compound 11, (2S, 6S, 2R)-2-[6-(2-p-Toluenesulfonyloxy-2-phenylethyl)-1-methylpiperidin-2-yl]-1-phenylethanone hydrochloride] | – | – | potency compared with lobeline at α4β2* nAChRs ([3H]nicotine binding) [1]: equipotent
8 | COc1ccc(C(=O)O[C@@H](C[C@@H]2CCC[C@H](CC(=O)c3ccccc3)N2C)c2ccccc2)cc1.Cl [Compound 4, (2S, 6S, 2R)-2-[6-(2-Anisoyloxy-2-phenylethyl)-1-methylpiperidin-2-yl]-1-phenylethanone hydrochloride] | 215–4800 fold | equipotent | –
9 | CN1[C@@H](CC(=O)c2ccccc2)CCC[C@H]1C[C@H](OC(=O)c1cccs1)c1ccccc1.Cl [Compound 9, (2S, 6S, 2R)-2-[6-(2-(2-Thiophen)-carboxyl-2-phenylethyl)-1-methylpiperidin-2-yl]-1-phenylethanone hydrochloride] | 215–4800 fold | – | –
